Measured values from ChEMBL document CHEMBL1201862, “PubChem BioAssay data set” (2004).
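These data come from cells grown in 96-well plates and exposed to compound for 48 hours at five concentrations. Here, GI50 denotes the concentration required for 50% inhibition of growth.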 Active and inactive are the calls of the source. Rule as the data show it: active = GI50 up to about 1.1 µM and inactive = higher. Peptide text beside a SMILES is read from it. * marks the point of attachment. Boc = CC(C)(C)OC(=O)*

Legend:
Assay in all cases: inhibition of tumour cell growth, NCI panel, 48 h
[1] = tested on: IGROV-1
[2] = tested on: SNB-75
[3] = tested on: SF-268
[4] = tested on: EKVX
[5] = tested on: T47D
[6] = tested on: HCT-15
[7] = tested on: HL-60
[8] = tested on: OVCAR-5
[9] = tested on: LOX IMVI
[10] = tested on: RXF 393
[11] = tested on: SK-MEL-2
[12] = tested on: NCI-H226
[13] = tested on: OVCAR-3
[14] = tested on: MDA-N
[15] = tested on: SF-539
[16] = tested on: Hs-578T
[17] = tested on: HCT-116
[18] = tested on: MOLT-4
[19] = tested on: OVCAR-8
[20] = tested on: PC-3
[21] = tested on: SN12C
[22] = tested on: BT-549
[23] = tested on: SK-OV-3
[24] = tested on: HOP-92
[25] = tested on: MCF7
[26] = tested on: Malme-3M
[27] = tested on: SF-295
[28] = tested on: HOP-62
[29] = tested on: K562
[30] = tested on: NCI/ADR-RES
[31] = tested on: CCRF-CEM
[32] = tested on: HT-29
[33] = tested on: KM12
[34] = tested on: SR
[35] = tested on: A549
[36] = tested on: TK-10
[37] = tested on: SW-620
[38] = tested on: UO-31
[39] = tested on: COLO 205
[40] = tested on: UACC-62
[41] = tested on: U-251
[42] = tested on: NCI-H460
[43] = tested on: RPMI-8226
[44] = tested on: SNB-19
[45] = tested on: M14
[46] = tested on: MDA-MB-231
[47] = tested on: DU-145
[48] = tested on: UACC-257
[49] = tested on: A498
[50] = tested on: 786-0
[51] = tested on: MDA-MB-435
[52] = tested on: NCI-H23
[53] = tested on: SK-MEL-28
[54] = tested on: ACHN
[55] = tested on: OVCAR-4
[56] = tested on: SK-MEL-5
[57] = tested on: CAKI-1
[58] = tested on: NCI-H522

CC(=O)/C(=C\I)c1ccccc1
GI50 [1]: 2.1 µM (inactive)
GI50 [2]: 3.94 µM (inactive)
GI50 [3]: 7.91 µM (inactive)
GI50 [4]: 18.6 µM (inactive)
GI50 [5]: 1.69 µM (inactive)
GI50 [6]: 1.83 µM
GI50 [7]: 1.08 µM (active)
GI50 [8]: 1.49 µM (inactive)
GI50 [9]: 1.67 µM (inactive)
GI50 [10]: 1.66 µM (inactive)
GI50 [11]: 2.6 µM (inactive)
GI50 [12]: 21.2 µM (inactive)
GI50 [13]: 1.7 µM (inactive)
GI50 [14]: 1.62 µM (inactive)
GI50 [15]: 18 µM (inactive)
GI50 [16]: 3.44 µM (inactive)
GI50 [17]: 2.26 µM (inactive)
GI50 [18]: 1.89 µM (inactive)
GI50 [19]: 1.82 µM (inactive)
GI50 [20]: 2.51 µM (inactive)
GI50 [21]: 1.99 µM (inactive)
GI50 [22]: 1.83 µM (inactive)
GI50 [23]: 13.6 µM (inactive)
GI50 [24]: 2.45 µM (inactive)
GI50 [25]: 1.8 µM (inactive)
GI50 [26]: 1.67 µM (inactive)
GI50 [27]: 19.1 µM (inactive)
GI50 [28]: 23.1 µM (inactive)
GI50 [29]: 0.481 µM (active)
GI50 [30]: 10 µM (inactive)
GI50 [31]: 1.97 µM (inactive)
GI50 [32]: 0.995 µM (active)
GI50 [33]: 3.57 µM (inactive)
GI50 [34]: 1.49 µM (inactive)
GI50 [35]: 15.7 µM (inactive)
GI50 [36]: 13.9 µM (inactive)
GI50 [37]: 1.3 µM (inactive)
GI50 [38]: 3.85 µM (inactive)
GI50 [39]: 1.71 µM (inactive)
GI50 [40]: 1.77 µM (inactive)
GI50 [41]: 2.26 µM (inactive)
GI50 [42]: 11.2 µM (inactive)
GI50 [43]: 2.03 µM (inactive)
GI50 [44]: 12.1 µM (inactive)
GI50 [45]: 2.31 µM (inactive)
GI50 [46]: 1.85 µM (inactive)
GI50 [47]: 3.38 µM (inactive)
GI50 [48]: 3.04 µM (inactive)
GI50 [49]: 17.7 µM (inactive)
GI50 [50]: 2.12 µM (inactive)
GI50 [51]: 3.86 µM (inactive)
GI50 [52]: 2.23 µM (inactive)
GI50 [53]: 3.18 µM (inactive)

CSCCC(NC(=O)C(CC(C)C)NC(=O)CNC(=O)OC(C)(C)C)C(=O)N(C)C (stereo not drawn) (Boc-Gly-Leu-Met-NMe2; configuration not given here)
GI50 [1]: > 100 µM (inactive)
GI50 [2]: 0.0272 µM (active)
GI50 [3]: > 100 µM (inactive)
GI50 [4]: > 100 µM (inactive)
GI50 [5]: > 100 µM (inactive)
GI50 [6]: > 100 µM
GI50 [54]: > 100 µM (inactive)
GI50 [55]: > 100 µM (inactive)
GI50 [7]: > 100 µM (inactive)
GI50 [8]: > 100 µM (inactive)
GI50 [9]: > 100 µM (inactive)
GI50 [10]: > 100 µM (inactive)
GI50 [11]: > 100 µM (inactive)
GI50 [12]: > 100 µM (inactive)
GI50 [14]: > 100 µM (inactive)
GI50 [15]: > 100 µM (inactive)
GI50 [56]: > 100 µM (inactive)
GI50 [16]: 4 µM (inactive)
GI50 [17]: > 100 µM (inactive)
GI50 [18]: > 100 µM (inactive)
GI50 [19]: > 100 µM (inactive)
GI50 [20]: > 100 µM (inactive)
GI50 [21]: > 100 µM (inactive)
GI50 [22]: > 100 µM (inactive)
GI50 [23]: > 100 µM (inactive)
GI50 [24]: > 100 µM (inactive)
GI50 [25]: > 100 µM (inactive)
GI50 [26]: 87.7 µM (inactive)
GI50 [27]: > 100 µM (inactive)
GI50 [29]: > 100 µM (inactive)
GI50 [30]: > 100 µM (inactive)
GI50 [31]: > 100 µM (inactive)
GI50 [32]: > 100 µM (inactive)
GI50 [33]: > 100 µM (inactive)
GI50 [34]: > 100 µM (inactive)
GI50 [35]: > 100 µM (inactive)
GI50 [36]: > 100 µM (inactive)
GI50 [57]: > 100 µM (inactive)
GI50 [37]: > 100 µM (inactive)
GI50 [38]: > 100 µM (inactive)
GI50 [39]: > 100 µM (inactive)
GI50 [40]: > 100 µM (inactive)
GI50 [41]: > 100 µM (inactive)
GI50 [44]: > 100 µM (inactive)
GI50 [58]: > 100 µM (inactive)
GI50 [45]: > 100 µM (inactive)
GI50 [46]: > 100 µM (inactive)
GI50 [47]: > 100 µM (inactive)
GI50 [48]: > 100 µM (inactive)
GI50 [49]: > 100 µM (inactive)
GI50 [50]: > 100 µM (inactive)
GI50 [51]: > 100 µM (inactive)
GI50 [52]: > 100 µM (inactive)
GI50 [53]: > 100 µM (inactive)

CN(C)CCCNC(=O)c1cc2/c(=C\c3ccc(N(C)C)cc3)c3ccccc3n2[n+]1C
GI50 [1]: 15.7 µM (inactive)
GI50 [3]: 32.6 µM (inactive)
GI50 [4]: 17.9 µM (inactive)
GI50 [5]: 1.45 µM (inactive)
GI50 [6]: > 100 µM
GI50 [54]: > 100 µM (inactive)
GI50 [55]: 8.77 µM (inactive)
GI50 [7]: 11.9 µM (inactive)
GI50 [8]: 56.6 µM (inactive)
GI50 [9]: 42 µM (inactive)
GI50 [10]: > 100 µM (inactive)
GI50 [11]: 17.6 µM (inactive)
GI50 [13]: 15.4 µM (inactive)
GI50 [14]: 24.4 µM (inactive)
GI50 [15]: 21.2 µM (inactive)
GI50 [56]: 15.6 µM (inactive)
GI50 [16]: > 100 µM (inactive)
GI50 [17]: 26.2 µM (inactive)
GI50 [18]: 34.8 µM (inactive)
GI50 [19]: 40.8 µM (inactive)
GI50 [20]: 39.5 µM (inactive)
GI50 [21]: 1.58 µM (inactive)
GI50 [22]: 63.7 µM (inactive)
GI50 [23]: > 100 µM (inactive)
GI50 [24]: 22.9 µM (inactive)
GI50 [25]: 21.8 µM (inactive)
GI50 [26]: 23.1 µM (inactive)
GI50 [27]: 40.3 µM (inactive)
GI50 [28]: 48.3 µM (inactive)
GI50 [29]: 8.83 µM (inactive)
GI50 [30]: > 100 µM (inactive)
GI50 [31]: 35.1 µM (inactive)
GI50 [32]: 27.5 µM (inactive)
GI50 [33]: 24.7 µM (inactive)
GI50 [34]: 23.3 µM (inactive)
GI50 [35]: > 100 µM (inactive)
GI50 [36]: 90.6 µM (inactive)
GI50 [57]: > 100 µM (inactive)
GI50 [37]: 31.1 µM (inactive)
GI50 [38]: > 100 µM (inactive)
GI50 [39]: 8.73 µM (inactive)
GI50 [40]: 17.3 µM (inactive)
GI50 [41]: 22.4 µM (inactive)
GI50 [42]: 51.2 µM (inactive)
GI50 [43]: 20.4 µM (inactive)
GI50 [44]: 24.8 µM (inactive)
GI50 [58]: 2.64 µM (inactive)
GI50 [45]: 21.4 µM (inactive)
GI50 [46]: 21.5 µM (inactive)
GI50 [47]: > 100 µM (inactive)
GI50 [48]: 21.4 µM (inactive)
GI50 [49]: 6.04 µM (inactive)
GI50 [50]: 52.8 µM (inactive)
GI50 [51]: 24.9 µM (inactive)
GI50 [52]: 21.3 µM (inactive)
GI50 [53]: 30.8 µM (inactive)
